Read-outs that look alike come from different tables or passages of the source. Square brackets hold non-standard residues; d marks the D form. Peptide text beside a SMILES is read from it. * marks the point of attachment. Benzoyl(4-OH) = O=C(c1ccc(O)cc1)*; 4Abz = Nc1ccc(C(=O)O)cc1; Boc = CC(C)(C)OC(=O)*; Bz = O=C(c1ccccc1)*; NHOH = ON*
How the values were obtained:
[1] = biological target: T1, human fibroblast collagenase (Homo sapiens, UniProt P03956); experiment: Inhibitory activity against human fibroblast collagenase (method of Nagai, FITC-derivatized bovine type I collagen); type: biochemical
T1 construct: collagenase derived from human fibroblasts; from tissue; host or cells: human fibroblasts
T1 sequence (P03956 100-469): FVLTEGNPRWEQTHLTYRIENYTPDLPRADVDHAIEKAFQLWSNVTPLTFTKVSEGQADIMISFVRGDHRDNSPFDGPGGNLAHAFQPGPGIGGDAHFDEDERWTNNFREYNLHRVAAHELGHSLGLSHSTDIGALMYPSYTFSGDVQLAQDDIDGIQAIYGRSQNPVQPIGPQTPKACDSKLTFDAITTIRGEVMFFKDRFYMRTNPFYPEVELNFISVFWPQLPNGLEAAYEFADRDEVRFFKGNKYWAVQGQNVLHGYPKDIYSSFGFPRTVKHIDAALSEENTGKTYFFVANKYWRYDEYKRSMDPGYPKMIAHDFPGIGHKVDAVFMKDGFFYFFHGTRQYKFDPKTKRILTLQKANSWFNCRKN
Method: (§1) (1) Inhibitory activity against collagenases
(§2) The inhibitory activity against human fibroblast collagenase (collagenase derived from human fibroblasts), tadpole-derived collagenase and bacteria (Clostridium)-derived collagenase was assayed in accordance with the method of Nagai [see Ensho, 4(2), 123 (1984)] using a fluorescence-labeledcollagen (FITC-derivatized bovine type I collagen).

[2] = biological target: T2, tadpole-derived collagenase (Aquarana catesbeiana, UniProt Q11133); experiment: biochemical
T2 construct: collagenase from tadpoles; from tissue
T2 sequence (Q11133 89-384): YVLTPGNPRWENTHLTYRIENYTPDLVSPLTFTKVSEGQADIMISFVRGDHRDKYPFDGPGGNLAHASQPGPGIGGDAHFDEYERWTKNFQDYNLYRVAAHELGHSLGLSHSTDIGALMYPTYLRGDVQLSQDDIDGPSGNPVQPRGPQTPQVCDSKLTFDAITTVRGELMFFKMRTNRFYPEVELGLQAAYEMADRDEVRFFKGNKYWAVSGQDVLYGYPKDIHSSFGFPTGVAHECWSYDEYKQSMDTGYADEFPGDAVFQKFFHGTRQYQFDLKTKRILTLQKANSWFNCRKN
Method: as §1, §2

trypsin = experiment: Inhibitory activity against trypsin (method of Laskowski, thermally denatured casein substrate); type: biochemical
Method: (§3) (3) Inhibitory activity against thermolysin, trypsin and α-chymotrypsin
(§4) This was assayed in accordance with the method of Laskowski [see Meth. Enzymol., 2, 8 (1955)] using a thermally denatured casein as substrate for the respective enzymes (i.e. thermolysin, trypsin and α-chymotrypsin).

[3] = test system: bacteria (Clostridium)-derived collagenase; experiment: Inhibitory activity against bacteria (Clostridium)-derived collagenase (method of Nagai, FITC-derivatized bovine type I collagen); type: biochemical
Method: as §1, §2

[4] = test system: sword bean-derived urease; experiment: Inhibitory activity against urease (method of Kobashi et al.); type: biochemical; conditions: at 4.0 × 10^-3 M
Method: (2) Inhibitory activity against urease
The inhibitory activity against urease was assayed in accordance with the method of Kobashi et al. [see Biochem. Biophys.

thermolysin = biological target: T3, thermolysin (Bacillus thermoproteolyticus, UniProt P00800); experiment: Inhibitory activity against thermolysin (method of Laskowski, thermally denatured casein substrate); type: biochemical; conditions: for inhibition at 4000 µM: at 4.0 × 10^-3 M
T3 sequence (P00800 233-548): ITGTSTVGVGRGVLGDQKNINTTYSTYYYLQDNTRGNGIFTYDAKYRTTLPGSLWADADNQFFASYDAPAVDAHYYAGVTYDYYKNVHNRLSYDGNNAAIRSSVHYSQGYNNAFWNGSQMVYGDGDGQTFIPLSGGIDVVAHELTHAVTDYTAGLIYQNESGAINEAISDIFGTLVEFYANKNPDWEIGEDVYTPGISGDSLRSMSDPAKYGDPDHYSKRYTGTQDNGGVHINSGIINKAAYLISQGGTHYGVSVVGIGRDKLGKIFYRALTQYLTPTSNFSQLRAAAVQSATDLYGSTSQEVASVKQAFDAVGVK
Method: as §3, §4

α-chymotrypsin = α-chymotrypsin (Bos taurus, UniProt P00766); experiment: Inhibitory activity against α-chymotrypsin (method of Laskowski, thermally denatured casein substrate); type: biochemical; conditions: for inhibition at 4000 µM: at 4.0 × 10^-3 M
Method: as §3, §4

mice = experiment: Acute toxicity test (LD50) in mice; type: in vivo
From the text: The toxicity of the new peptide compounds of this invention is as follows:
Acute toxicity test (LD50) in mice

[5] = read-out: IC50 Human fibroblast collagenase

CC(C)C[C@@H](NC(=O)[C@@H](CC(C)C)NC(=O)[C@@H]1CCCN1C(=O)CN1C(=O)c2ccccc2C1=O)C(=O)NO [Example 40, PTHGlyPro-D-Leu-D-LeuNHOH]
IC50 [1, 5]: 3.6 µM | IC50 ([2]; read-out: IC50 Tadpole collagenase): 3.1 µM | Inhibition (%) Trypsin (trypsin; at 1.0 × 10^-2): 21.6% | Inhibition (%) Bacterial collagenase ([3]; at 4.0 × 10^-3 M): 20.7% | Inhibition (%) Urease [4]: 3.3% | inhibition at 4000 µM (thermolysin): 32.2% | inhibition at 10000 µM (α-chymotrypsin; at 1.0 × 10^-2 M): 22.3%

CC(C)C[C@H](NC(=O)[C@@H]1CCCN1C(=O)CNC(=O)OC(C)(C)C)C(=O)N[C@H](C(=O)NO)C(C)C [Example 18, BocGlyProLeuValNHOH] (Boc-GPLV-{NHOH})
IC50 [1, 5]: 3.1 µM | IC50 [2]: 9.8 µM | inhibition at 10100 µM (thermolysin; at 1.01 × 10^-2 M): 50% | inhibition at 4000 µM (α-chymotrypsin): 0%

CC(C)C[C@@H](NC(=O)[C@@H]1CCCN1C(=O)CNC(=O)c1ccc(N)cc1)C(=O)N[C@H](C)C(=O)NO [Example 6] (H-[4Abz]GP[dL][dA]-{NHOH}; N-terminus and C-terminus assumed)
LD50 Intraperitoneal administration (mice): > 2000 mg/kg | LD50 Intravenous administration (mice): > 200 mg/kg | IC50 [1, 5]: 1.28 µM | Inhibition (%) Trypsin (trypsin; at 2.0 × 10^-3): 6.5% | Inhibition (%) Bacterial collagenase ([3]; at 2.0 × 10^-4 M): 7.1% | Inhibition (%) Urease [4]: 2.0% | inhibition at 4000 µM (thermolysin): 26.8% | inhibition at 2000 µM (α-chymotrypsin; at 2.0 × 10^-3 M): 26.4%

CC(C)C[C@@H](NC(=O)[C@@H]1CCCN1C(=O)CNC(=O)c1ccc(O)cc1)C(=O)N[C@H](C)C(=O)NO [Example 7, p-Hydroxybenzoyl-glycyl-L-prolyl-D-leucyl-D-alanylhydroxamic acid] ({Benzoyl(4-OH)}-GP[dL][dA]-{NHOH})
LD50 Intraperitoneal administration (mice): > 2000 mg/kg | LD50 Intravenous administration (mice): > 200 mg/kg | IC50 [1, 5]: 1.18 µM | IC50 [2]: 1.05 µM | inhibition at 4000 µM (thermolysin): 60.4% | inhibition at 4000 µM (α-chymotrypsin): 22.3%

CC(C)C[C@H](NC(=O)[C@@H]1CCCN1C(=O)CNC(=O)c1ccc(N)cc1)C(=O)N[C@@H](C)C(=O)NO [Example 41, AcOH.ABAGlyProLeuAlaNHOH] (H-[4Abz]GPLA-{NHOH})
LD50 Intraperitoneal administration (mice): > 2000 mg/kg | LD50 Intravenous administration (mice): > 200 mg/kg | IC50 [1, 5]: 3.7 µM | IC50 [2]: 4 µM | inhibition at 20 µM (thermolysin; at 2.0 × 10^-5 M): 4% | inhibition at 20 µM (α-chymotrypsin; at 2.0 × 10^-5 M): 27.3%

CC(C)C[C@H](NC(=O)[C@@H]1CCCN1C(=O)CNC(=O)c1ccccc1)C(=O)N[C@@H](C)C(=O)NO [Example 34, BzGlyProLeuAlaNHOH] (Bz-GPLA-{NHOH})
IC50 [1]: 2.7 µM | IC50 [2]: 7.7 µM | inhibition at 4000 µM (thermolysin): 35% | inhibition at 200 µM (α-chymotrypsin; at 2.0 × 10^-4 M): 0%

CC(C)C[C@@H](NC(=O)[C@@H]1CCCN1C(=O)CNC(=O)c1ccccc1)C(=O)N[C@H](C)C(=O)NO [Example 35, BzGlyPro-D-Leu-D-AlaNHOH] (Bz-GP[dL][dA]-{NHOH})
IC50 [1]: 6.4 µM | IC50 [2]: 3.1 µM | inhibition at 4000 µM (thermolysin): 38% | inhibition at 100 µM (α-chymotrypsin; at 1.0 × 10^-4 M): 12.8%

Source: patent publication US5100874A, “Hydroxamic acid tetrapeptide derivatives” (Fuji Yakuhin Kogyo Kabushiki Kaisha, priority 1987, dated 1992)
